Laboratory results from PMC10698194 (Nature Communications, 2023).
“And” between values parts separate entries of the source, which are not always exact repeats. Equal values may be shown once. Read-outs that look alike come from different tables or passages of the source. Bridge positions count the residues as written; N and C are the ends. Square brackets hold non-standard residues; d marks the D form. Peptide text beside a SMILES is read from it. * marks the point of attachment. X1 = C=CCN1CC[C@]23c4c5ccc(O)c4O[C@H]2[C@H](N*)CC[C@@]3(O)[C@H]1C5

Columns and labels:
human KOR D138A = biological target: T1, human KOR D138A (Homo sapiens, UniProt P41145, D138A); assay: cAMP inhibition assay normalized to salvinorin A; type: cell-based
T1 construct: expressed in transfected cells
T1 sequence (P41145 whole entry D138A): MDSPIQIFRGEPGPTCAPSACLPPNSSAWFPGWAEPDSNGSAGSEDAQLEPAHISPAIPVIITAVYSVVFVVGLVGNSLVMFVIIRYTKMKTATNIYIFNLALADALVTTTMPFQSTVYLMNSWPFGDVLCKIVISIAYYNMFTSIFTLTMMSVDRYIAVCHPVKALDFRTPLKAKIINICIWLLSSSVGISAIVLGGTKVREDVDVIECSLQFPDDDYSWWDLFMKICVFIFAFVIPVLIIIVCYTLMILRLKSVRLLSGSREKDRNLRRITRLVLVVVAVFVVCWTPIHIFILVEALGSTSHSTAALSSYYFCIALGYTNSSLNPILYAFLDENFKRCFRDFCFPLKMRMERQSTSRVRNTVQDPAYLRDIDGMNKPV

human KOR E297A [1] = biological target: T2, human KOR E297A (Homo sapiens, UniProt P41145, E297A); assay: BRET β-arrestin-2 biosensor assay; type: cell-based; conditions: KOR(E297A), Log [drug], individual replicates
T2 construct: FLAG; expressed in transfected cells; host or cells: HEK293T
T2 sequence (P41145 whole entry E297A): as the sequence (P41145 whole entry D138A) above, with A138D, E297A counted along it

human KOR E209A = biological target: T3, human KOR E209A (Homo sapiens, UniProt P41145, E209A); type: cell-based; conditions: KOR(E209A), Log [drug], individual replicates
T3 construct: FLAG; expressed in transfected cells; host or cells: HEK293 / HEK293T, transient
T3 sequence (P41145 whole entry E209A): as the sequence (P41145 whole entry D138A) above, with A138D, E209A counted along it

human KOR L309A = biological target: T4, human KOR L309A (Homo sapiens, UniProt P41145, L309A); type: cell-based; conditions: KOR(L309A), Log [drug], individual replicates
T4 construct: FLAG; expressed in transfected cells; host or cells: HEK293T
T4 sequence (P41145 whole entry L309A): as the sequence (P41145 whole entry D138A) above, with A138D, L309A counted along it

human KOR E297A [2] = biological target: T2, human KOR E297A; type: cell-based; conditions: KOR(E297A), Log [drug], individual replicates
mouse KOR [3] = biological target: T5, mouse KOR (Mus musculus, UniProt P33534); assay: biochemical; type: binding; set-up: expressed in transfected cells; conditions: for specific [3H]DPN binding, normalized to 100%: replicates
T5 sequence (P33534 whole entry): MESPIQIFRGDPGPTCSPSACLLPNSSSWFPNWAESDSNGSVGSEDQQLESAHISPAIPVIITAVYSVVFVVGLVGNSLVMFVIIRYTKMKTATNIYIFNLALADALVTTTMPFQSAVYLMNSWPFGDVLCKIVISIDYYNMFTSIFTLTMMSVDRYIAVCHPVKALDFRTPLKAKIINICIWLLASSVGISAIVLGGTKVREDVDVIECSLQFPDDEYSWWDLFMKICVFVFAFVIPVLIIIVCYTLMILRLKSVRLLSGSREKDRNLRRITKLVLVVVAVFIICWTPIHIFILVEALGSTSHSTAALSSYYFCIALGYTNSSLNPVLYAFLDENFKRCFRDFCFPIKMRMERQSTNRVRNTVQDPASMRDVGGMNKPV

mouse KOR [4] = biological target: T5, mouse KOR; assay: cell-based; set-up: expressed in transfected cells; conditions: for Emax: HEK-293T, read-out: Emax cAMP assay; for EC50: read-out: EC50 cAMP assay

## C=CCN1CC[C@]23c4c5ccc(O)c4O[C@H]2[C@H](NC(=O)[C@@H](Cc2ccccc2)NC(=O)[C@@H](NC(=O)[C@@H]2CSCC(=O)N[C@@H](Cc4ccc(O)cc4)C(=O)N[C@@H](C)C(=O)N[C@H](Cc4ccc(O)cc4)C(=O)N[C@@H]([C@@H](C)O)C(=O)N[C@@H]([C@@H](C)O)C(=O)N2)[C@@H](C)O)CC[C@@]3(O)[C@H]1C5 [DNCP-βNalA(1)] ({CH2CO}-YA[dY]TTCT[dF]-X1; thioether N-6)
Human KOR D138A; Log [ligand] (M) -5
  response at D138A, Figure S26: 110.03 and 108.68 and 121.152 and 120.937 and 117.964 and 108.941 and 117.457
Human KOR D138A; Log [ligand] (M) -6
  response at D138A, Figure S26: 96.1567 and 103.986 and 100.687 and 108.287 and 104.111 and 103.774 and 93.2795 and 106.739
Human KOR D138A; Log [ligand] (M) -7
  response at D138A, Figure S26: 95.0352 and 99.2926 and 97.756 and 110.621 and 103.099 and 111.681 and 84.8048 and 93.7365
Human KOR D138A; Log [ligand] (M) -8
  response at D138A, Figure S26: 92.5638 and 91.2347 and 98.8959 and 103.021 and 118.301 and 103.099 and 100.466 and 95.1074
Human KOR D138A; Log [ligand] (M) -9
  response at D138A, Figure S26: 68.4109 and 66.6248 and 86.0309 and 72.0259 and 98.5019 and 110.7 and 66.4429 and 85.6772
Human KOR E297A [1]; M = -5
  βarrestin2-reruitment: 64.952 and 70.3776 and 70.3029
Human KOR E297A [1]; M = -6
  βarrestin2-reruitment: 64.952 (2×) and 65.8365 and 61.2954 and 65.7763 and 64.7423
Human KOR E297A [1]; M = -7
  βarrestin2-reruitment: 57.4606 and 53.3486 and 51.3006 and 53.3686 and 55.3202
Human KOR E297A [1]; M = -8
  βarrestin2-reruitment: 54.25 and 56.7544 and 54.4026 and 55.3202
Human KOR E297A [1]; M = -9
  βarrestin2-reruitment: 42.4779 and 34.0491 and 29.508 and 29.5871 and 25.4512 and 32.8461
Human KOR E297A [1]; M = -10
  βarrestin2-reruitment: 4.532 and 6.8027 and 4.772
Human KOR E209A; M = -6
  Gi1-activation: 95.0321
Human KOR E209A; M = -7
  Gi1-activation: 98.4538 and 95.0321 and 92.9731 (2×)
Human KOR E209A; M = -9
  Gi1-activation: 93.8915 and 90.4927
Human KOR L309A; M = -5
  Gi1-activation: 98.4884 and 94.3563
Human KOR L309A; M = -6
  Gi1-activation: 92.9882 and 93.5382 and 87.9287
Human KOR L309A; M = -7
  Gi1-activation: 91.3288 and 89.81 and 94.9619
Human KOR L309A; M = -8
  Gi1-activation: 94.9619 and 94.0882
Human KOR E297A [2]; M = -5
  Gi1-activation: 95.0144
Human KOR E297A [2]; M = -6
  Gi1-activation: 93.9606 and 93.3336 and 93.3709
Human KOR E297A [2]; M = -7
  Gi1-activation: 92.7066 and 94.3563
Human KOR E297A [2]; M = -8
  Gi1-activation: 92.7066 and 93.9606 and 93.6983

## C=CCN1CC[C@]23c4c5ccc(O)c4O[C@H]2[C@H](NC(=O)[C@@H](Cc2ccccc2)NC(=O)[C@H](CO)NC(=O)[C@@H]2CSCC(=O)N[C@H]([C@H](C)O)C(=O)N[C@@H](CC(N)=O)C(=O)N[C@H](CCC(=O)O)C(=O)N[C@H](CO)C(=O)N[C@H](CC(C)C)C(=O)N2)CC[C@@]3(O)[C@H]1C5 [DNCP-β-NalA(2)] ({CH2CO}-[dT]N[dE][dS][dL]CS[dF]-X1; thioether N-6)
Mouse KOR [3]; Log [ligand] (M) -5
  specific [3H]DPN binding, normalized to 100%: 0.2531 and 1.3817 and 8.417
Mouse KOR [3]; Log [ligand] (M) -5.5
  specific [3H]DPN binding, normalized to 100%: 5.254 and 5.706 and 15.2738
Mouse KOR [3]; Log [ligand] (M) -6
  specific [3H]DPN binding, normalized to 100%: 8.812 and 8.467 and 22.3516
Mouse KOR [3]; Log [ligand] (M) -6.5
  specific [3H]DPN binding, normalized to 100%: 20.0364 and 16.1798 and 28.5928
Mouse KOR [3]; Log [ligand] (M) -7
  specific [3H]DPN binding, normalized to 100%: 30.6965 and 29.2448 and 46.3656
Mouse KOR [3]; Log [ligand] (M) -7.5
  specific [3H]DPN binding, normalized to 100%: 73.9679 and 58.4159 and 82.1752
Mouse KOR [3]; Log [ligand] (M) -8
  specific [3H]DPN binding, normalized to 100%: 84.0925 and 77.2121 and 90.6295
Mouse KOR [3]; Log [ligand] (M) -8.5
  specific [3H]DPN binding, normalized to 100%: 94.004 and 85.6847 and 98.8664
Mouse KOR [3]; Log [ligand] (M) -9
  specific [3H]DPN binding, normalized to 100%: 85.0018 and 88.1692 and 96.9444
Mouse KOR [3]; Log [ligand] (M) -9.5
  specific [3H]DPN binding, normalized to 100%: 100
Mouse KOR [3]; [3H]DPN 1 nM, read-out: Ki
  Ki: 31 nM
Mouse KOR [4]
  Emax: 89 ± 2%
  EC50: 7.5 nM

## C=CCN1CC[C@]23c4c5ccc(O)c4O[C@H]2[C@H](NC(=O)[C@@H](Cc2ccccc2)NC(=O)[C@H](CO)NC(=O)[C@@H]2CSCC(=O)N[C@H](CO)C(=O)N[C@H](CC(=O)O)C(=O)N[C@H](Cc4c[nH]cn4)C(=O)N[C@@H](C)C(=O)N[C@@H](C)C(=O)N2)CC[C@@]3(O)[C@H]1C5 [DNCP-β-NalA(4)]
Mouse KOR [3]; Log [ligand] (M) -5
  specific [3H]DPN binding, normalized to 100%: 7 and 5.59 and 5.4127
Mouse KOR [3]; Log [ligand] (M) -5.5
  specific [3H]DPN binding, normalized to 100%: 12.4013 and 7.976 and 9.019
Mouse KOR [3]; Log [ligand] (M) -6
  specific [3H]DPN binding, normalized to 100%: 12.817 and 12.3329 and 11.7119
Mouse KOR [3]; Log [ligand] (M) -6.5
  specific [3H]DPN binding, normalized to 100%: 19.572 and 16.0481 and 16.106
Mouse KOR [3]; Log [ligand] (M) -7
  specific [3H]DPN binding, normalized to 100%: 34.7156 and 27.5243 and 29.2083
Mouse KOR [3]; Log [ligand] (M) -7.5
  specific [3H]DPN binding, normalized to 100%: 62.865 and 48.8054 and 54.3277
Mouse KOR [3]; Log [ligand] (M) -8
  specific [3H]DPN binding, normalized to 100%: 85.7392 and 63.6235 and 68.5184
Mouse KOR [3]; Log [ligand] (M) -8.5
  specific [3H]DPN binding, normalized to 100%: 110.569 and 79.1117 and 88.8606
Mouse KOR [3]; Log [ligand] (M) -9
  specific [3H]DPN binding, normalized to 100%: 116.546 and 94.2824 and 100.104
Mouse KOR [3]; Log [ligand] (M) -9.5
  specific [3H]DPN binding, normalized to 100%: 100
Mouse KOR [4]
  Emax: 101 ± 2%
  EC50: 1 nM
